In PMC9425435, “Antiviral Profiling of C-18- or C-19-Functionalized Semisynthetic Abietane Diterpenoids” (Journal of Natural Products, 2022):
Where two headings read alike, the source gives them in different places. Marks after values point to notes of the source that are not given here.

How the values were obtained:
[1] = test system: DENV-2 (Dengue virus type 2); assay: Plaque reduction assay (PFU), DENV-2 in BHK21; assay type: cell-based; conditions: for % inhibition (PFU): DENV-2, BHK21, PFU/well 150 ± 25
Vero-E6 cells = assay: Cytotoxicity CC100 in Vero-E6 cells (72 h); conditions: for CC100 (100% cytotoxic concentration): Vero-E6 cells, 72h; for Cytostatic compounds (asterisk at the label): Table 1 footnote mark
BHK-21 cells = assay: Cytotoxicity CC100 in BHK-21 cells (6 days)
ZIKV (Zika virus) [2] = assay: Plaque reduction assay (PFU), ZIKV in Vero E6; assay type: cell-based; conditions: ZIKV, Vero E6, PFU/well 150 ± 25
[3] = test system: CHIKV (Chikungunya virus); assay: End-point titration technique (EPTT), viral titer reduction factor, CHIKV in Vero E6; assay type: cell-based; conditions: for Rf (reduction factor of the viral titer): Vero E6, 10TCID50, EPTT
HHV-1, 29R strain = assay type: cell-based, human Alpha herpesvirus type 1
[4] = test system: DENV-2 (Dengue virus type 2); assay: End-point titration technique (EPTT), cytopathic effect inhibition, DENV-2 in Vero E6; assay type: cell-based; conditions: DENV-2, Vero E6, 10TCID50, EPTT
ZIKV (Zika virus) [5] = assay: End-point titration technique (EPTT), cytopathic effect inhibition, ZIKV in Vero E6; assay type: cell-based; conditions: Vero E6, 10TCID50, EPTT

Row | Molecule | CC100 (100% cytotoxic concentration) (Vero-E6 cells) [µg/mL] | CC100 (100% cytotoxic concentration) (BHK-21 cells) [µg/mL] | % inhibition (PFU) (ZIKV (Zika virus) [2]) [%] | Rf (reduction factor of the viral titer) (HHV-1, 29R strain; Vero E6, 10TCID50, EPTT) | other results
1 | COC(=O)[C@@]1(C)CCC[C@]2(C)c3cc(C(C)=O)c(C(C)C)cc3CC[C@@H]12 [Compound 15b] | >50 | 50 | 29 ± 14 | – | % inhibition (PFU) [1]: 68 ± 20%
2 | CC(C)c1cc2c(cc1O)[C@@]1(C)CCCC(C)(C)[C@@H]1CC2 [Compound 5, (+)-ferruginol] | >50 | >50 | 38 ± 15 | not active | % inhibition (PFU) [1]: 28 ± 10%; Rf (reduction factor of the viral titer) [3]: 10^2
3 | COC(=O)[C@]1(C)CCC[C@]2(C)c3cc(O)c(C(C)C)cc3CC[C@@H]12 [Compound 18a] | 50 | 25 | – | – | –
4 | CC(C)c1ccc2c(c1O)CC[C@H]1[C@](C)(C(=O)O)CCC[C@]21C [Compound 25] | >25 | >25 | 20 ± 09 | not active | –
5 | CC(C)c1cc2c(cc1O)[C@@]1(C)CCC[C@@](C)(CO)[C@@H]1CC2=O [Compound 21a] | 25 | 12.5 | 27 ± 12 | – | Rf (reduction factor of the viral titer) [3]: 10^2; inhibition ECytop (inhibitory cytopathic effect compared to the infection control) [4]: +
6 | COC(=O)[C@]1(C)CCC[C@]2(C)c3cc(OC(C)=O)c(C(C)C)cc3C(=O)C[C@@H]12 [Compound 17a] | 25 | 25 | – | – | –
7 | COC(=O)[C@]1(C)CCC[C@]2(C)c3cc(OC(C)=O)c(C(C)C)cc3CC[C@@H]12 [Compound 16a] | 50 | 50 | 22 ± 13 | – | inhibition ECytop (inhibitory cytopathic effect compared to the infection control) (ZIKV (Zika virus) [5]): +; Rf (reduction factor of the viral titer) [3]: 10^2
8 | heparin [reference compound] | – | – | – | – | Nontoxic concentration that showed higher viral reduction factor ([3]; Vero E6, EPTT, heparin): 10 U.I.; CC100 (100% cytotoxic concentration) (Vero-E6 cells; heparin): >100 U.I; Nontoxic concentration that showed higher viral reduction factor (HHV-1, 29R strain; Vero E6, EPTT, heparin): 10 U.I.
9 | CC(C)c1cc2c(cc1O)[C@@]1(C)CCC[C@@](C)(C(=O)O)[C@@H]1CC2 [Compound 19a, 12-hydroxydehydroabietic acid] | 25 | 12.5 | – | – | –
10 | CC(C)c1cc2c(cc1O)[C@@]1(C)CCC[C@](C)(CO)[C@@H]1CC2 [Compound 20b, 19-hydroxyferruginol] | 25 | 12.5 | – | – | inhibition ECytop (inhibitory cytopathic effect compared to the infection control) (ZIKV (Zika virus) [5]): +; Rf (reduction factor of the viral titer) [3]: 10^2
11 | COC(=O)[C@]1(C)CCC[C@]2(C)c3ccc(C(C)C)c(O)c3CC[C@@H]12 [Compound 24, methyl 14-hydroxy-dehydroabietate] | >25 | >25 | 51 ± 15 | – | % inhibition (PFU) [1]: 48 ± 9%; Most active concentration, in μM ([1]; DENV-2 PFU assay, conversion of 3.1 μg/mL): ca. 9.3 μM; Rf (reduction factor of the viral titer) [3]: 10^2
12 | COC(=O)[C@]1(C)CCC[C@]2(C)c3cc(C(C)=O)c(C(C)C)cc3CC[C@@H]12 [Compound 15a] | >50 | 25 | – | – | –
13 | CC(C)c1ccc2c(c1)CC[C@H]1C(C)(C(=O)O)CCC[C@]21C (some centres unmarked) [Compound 13] | 50 | 50 | 19 ± 12 | – | inhibition ECytop (inhibitory cytopathic effect compared to the infection control) [4]: +; Cytostatic compounds (asterisk at the label) (Vero-E6 cells): 13*
14 | CC(C)c1cc2c(cc1O)[C@@]1(C)CCC[C@](C)(C(=O)O)[C@@H]1CC2 [Compound 19b, lambertic acid] | >50 | >50 | 27 ± 17 | – | % inhibition (PFU) [1]: 35 ± 10%; inhibition ECytop (inhibitory cytopathic effect compared to the infection control) (ZIKV (Zika virus) [5]): +
15 | CC(C)c1cc2c(cc1O)[C@@]1(C)CCC[C@](C)(C(=O)O)[C@@H]1CC2=O [Compound 23b] | 25 | 12.5 | – | not active | –
16 | dextran sulfate [DS, reference compound] | >50 | – | – | – | Nontoxic concentration that showed higher viral reduction factor (HHV-1, 29R strain; Vero E6, 10TCID50, EPTT): 5 µg/mL
17 | COC(=O)[C@@]1(C)CCC[C@]2(C)c3cc(OC(C)=O)c(C(C)C)cc3C(=O)C[C@@H]12 [Compound 17b] | 50 | 25 | – | not active | inhibition ECytop (inhibitory cytopathic effect compared to the infection control) (ZIKV (Zika virus) [5]): +
18 | COC(=O)[C@@]1(C)CCC[C@]2(C)c3cc(OC(C)=O)c(C(C)C)cc3CC[C@@H]12 [Compound 16b] | 25 | 25 | 29 ± 9 | not active | inhibition ECytop (inhibitory cytopathic effect compared to the infection control) (ZIKV (Zika virus) [5]): +; inhibition ECytop (inhibitory cytopathic effect compared to the infection control) [4]: +
19 | COC(=O)[C@]1(C)CCC[C@]2(C)c3cc(O)c(C(C)C)cc3C(=O)C[C@@H]12 [Compound 22a] | 50 | 25 | – | – | –
20 | COC(=O)[C@]1(C)CCC[C@]2(C)c3ccc(C(C)C)cc3CC[C@@H]12 [Compound 12, methyl dehydroabietate] | >50 | 50 | 25 ± 10 | – | inhibition ECytop (inhibitory cytopathic effect compared to the infection control) (ZIKV (Zika virus) [5]): +
21 | COC(=O)[C@@]1(C)CCC[C@]2(C)c3cc(O)c(C(C)C)cc3C(=O)C[C@@H]12 [Compound 22b] | 25 | 12.5 | – | not active | inhibition ECytop (inhibitory cytopathic effect compared to the infection control) [4]: +
22 | CC(C)c1cc2c(cc1O)[C@@]1(C)CCC[C@@](C)(C(=O)O)[C@@H]1CC2=O [Compound 23a, liquiditerpenoic acid A] | >50 | 50 | – | – | –
23 | CC(C)c1cc2c(cc1O)[C@@]1(C)CCC[C@@](C)(CO)[C@@H]1CC2 [Compound 20a, 18-hydroxyferruginol] | 50 | 50 | 19 ± 11 | – | % inhibition (PFU) [1]: 25 ± 10%; Rf (reduction factor of the viral titer) [3]: 10^2; Cytostatic effect (Vero-E6 cells): cytostatic; Cytostatic compounds (asterisk at the label) (Vero-E6 cells): 20a*
24 | CC(C)c1ccc2c(c1O)CC[C@H]1[C@](C)(CO)CCC[C@]21C [Compound 26] | >25 | >25 | – | not active | inhibition ECytop (inhibitory cytopathic effect compared to the infection control) (ZIKV (Zika virus) [5]): +
25 | CC(C)c1ccc2c(c1)CC[C@H]1C(C)(CO)CCC[C@]21C (some centres unmarked) [Compound 14] | >50 | >50 | 37 ± 15 | not active | % inhibition (PFU) [1]: 30 ± 10%; Rf (reduction factor of the viral titer) [3]: 10^2
26 | COC(=O)[C@@]1(C)CCC[C@]2(C)c3cc(O)c(C(C)C)cc3CC[C@@H]12 [Compound 18b] | >50 | 50 | 48 ± 12 | not active | % inhibition (PFU) [1]: 51 ± 8%; Rf (reduction factor of the viral titer) [3]: 10^2
27 | CC(C)c1cc2c(cc1O)[C@@]1(C)CCC[C@](C)(CO)[C@@H]1CC2=O [Compound 21b] | >25 | 25 | – | – | –
